Source: ChEMBL document CHEMBL3352551, “Synthesis and biological evaluation of novel allosteric enhancers of the A1 adenosine receptor based on 2-amino-3-(4'-chlorobenzoyl)-4-substituted-5-arylethynyl thiophene” (J Med Chem, 2014)
Activity calls are given as the source filed them. No cut-off for these calls is given here.

Tests used:
[1] = target: T1, Adenosine receptor A1 (Homo sapiens) (UniProt P30542); assay: Allosteric enhancer activity at human adenosine A1 receptor expressed in CHO cell membranes assessed as shift in [3H]CCPA Bmax level at 10 uM by saturation binding assay
T1 sequence (whole entry): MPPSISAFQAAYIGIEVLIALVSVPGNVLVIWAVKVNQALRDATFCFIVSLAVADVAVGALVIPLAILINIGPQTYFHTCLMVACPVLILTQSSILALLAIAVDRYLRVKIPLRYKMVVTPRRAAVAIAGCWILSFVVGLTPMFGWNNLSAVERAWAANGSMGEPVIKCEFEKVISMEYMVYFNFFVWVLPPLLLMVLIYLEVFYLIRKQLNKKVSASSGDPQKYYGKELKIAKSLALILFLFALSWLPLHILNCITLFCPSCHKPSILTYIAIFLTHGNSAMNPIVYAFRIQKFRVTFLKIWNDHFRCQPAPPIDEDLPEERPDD

[2] = target: T1, Adenosine receptor A1 (Homo sapiens); assay: Allosteric enhancer activity at human adenosine A1 receptor expressed in CHO cell membranes assessed as shift in CCPA binding Ki level at 10 uM by [3H]DPCPX competition binding assay
[3] = target: T1, Adenosine receptor A1 (Homo sapiens); assay: Allosteric enhancer activity at human adenosine A1 receptor expressed in CHO cells assessed as inhibition of forskolin-induced cAMP production at 100 nM in presence of 1 pM CCPA; assay type: functional, cell-based
[4] = target: T2, Adenosine receptor A3 (Homo sapiens) (UniProt P0DMS8); assay: Displacement of [3H]MRE-3008-F20 from human adenosine 3 receptor expressed in CHO cell membranes at 10 uM
T2 sequence (whole entry): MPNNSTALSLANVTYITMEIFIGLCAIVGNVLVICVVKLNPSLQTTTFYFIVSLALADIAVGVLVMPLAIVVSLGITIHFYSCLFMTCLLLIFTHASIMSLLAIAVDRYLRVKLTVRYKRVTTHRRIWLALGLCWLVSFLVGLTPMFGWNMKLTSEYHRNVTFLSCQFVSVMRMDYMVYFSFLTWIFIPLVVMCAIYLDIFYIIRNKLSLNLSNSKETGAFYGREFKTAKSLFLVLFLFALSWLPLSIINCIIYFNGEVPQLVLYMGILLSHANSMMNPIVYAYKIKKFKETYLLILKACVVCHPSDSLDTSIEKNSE

[5] = target: Adenosine receptor A2a (Homo sapiens) (UniProt P29274); assay: Displacement of [3H]ZM241385 from human adenosine A2A receptor expressed in CHO cell membranes at 10 uM
[6] = target: T1, Adenosine receptor A1 (Homo sapiens); assay: Allosteric enhancer activity at human adenosine A1 receptor expressed in CHO cell membranes assessed as shift in [3H]CCPA Kd level at 10 uM by saturation binding assay
[7] = target: T1, Adenosine receptor A1 (Homo sapiens); assay: Allosteric enhancer activity at human adenosine A1 receptor expressed in CHO cells assessed as inhibition of forskolin-induced cAMP production at 10 uM; assay type: functional, cell-based
[8] = target: T1, Adenosine receptor A1 (Homo sapiens); assay: Displacement of [3H]DPCPX from human adenosine A1 receptor expressed in CHO cell membranes at 10 uM

Sequence of Adenosine receptor A2a (Homo sapiens) (P29274 whole entry): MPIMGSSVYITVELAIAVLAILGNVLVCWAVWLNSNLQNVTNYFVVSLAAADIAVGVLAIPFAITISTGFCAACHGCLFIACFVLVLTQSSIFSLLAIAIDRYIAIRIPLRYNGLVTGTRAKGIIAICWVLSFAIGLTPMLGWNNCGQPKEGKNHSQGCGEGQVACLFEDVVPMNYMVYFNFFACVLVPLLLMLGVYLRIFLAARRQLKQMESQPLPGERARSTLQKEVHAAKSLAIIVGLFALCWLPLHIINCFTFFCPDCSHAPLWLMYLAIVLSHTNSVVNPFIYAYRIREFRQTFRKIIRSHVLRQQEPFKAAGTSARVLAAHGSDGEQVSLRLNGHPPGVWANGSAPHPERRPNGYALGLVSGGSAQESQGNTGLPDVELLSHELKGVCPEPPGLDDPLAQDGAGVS

COc1ccc(-c2sc(N)c(C(=O)c3ccc(Cl)cc3)c2CC(C)(C)C)cc1
fold change (FC) [1]: 6.1 | fold change (FC) [2]: 4.3

Nc1sc(-c2ccccc2)c(CN(C2CCCCC2)C2CCCCC2)c1C(=O)c1ccc(Cl)cc1
fold change (FC) [1]: 3.5 | fold change (FC) [2]: 3.2

COc1ccc(C#Cc2sc(N)c(C(=O)c3ccc(Cl)cc3)c2CC(C)(C)C)cc1
inhibition [3]: 79% | inhibition [4]: < 15% | inhibition [5]: < 15% | Activity [6]: inactive | fold change (FC) [1]: 7.4 | inhibition [7]: 71% | fold change (FC) [2]: 8.2 | inhibition [8]: < 15%

Nc1sc(C#Cc2ccccc2)c(CN2CCN(c3ccc(C(F)(F)F)cc3)CC2)c1C(=O)c1ccc(Cl)cc1
inhibition [3]: 33% | inhibition [4]: < 15% | inhibition [5]: < 15% | fold change (FC) [1]: 2.9 | inhibition [7]: 31% | fold change (FC) [2]: 3 | inhibition [8]: < 15%

Nc1sc(C#Cc2ccccc2)c(CN2CCN(c3ccc(Cl)c(Cl)c3)CC2)c1C(=O)c1ccc(Cl)cc1
inhibition [3]: 24% | inhibition [4]: < 15% | inhibition [5]: < 15% | fold change (FC) [1]: 2.1 | inhibition [7]: 22% | fold change (FC) [2]: 1.7 | inhibition [8]: < 15%

Nc1sc(C#Cc2ccccc2)c(CN2CCN(c3ccc(Cl)c(C(F)(F)F)c3)CC2)c1C(=O)c1ccc(Cl)cc1
inhibition [3]: 36% | inhibition [4]: < 15% | inhibition [5]: < 15% | fold change (FC) [1]: 2.7 | inhibition [7]: 30% | fold change (FC) [2]: 2.4 | inhibition [8]: < 15%

Cc1cccc(C#Cc2sc(N)c(C(=O)c3ccc(Cl)cc3)c2CC(C)(C)C)c1
inhibition [3]: 71% | inhibition [4]: < 15% | inhibition [5]: < 15% | fold change (FC) [1]: 7.5 | inhibition [7]: 68% | fold change (FC) [2]: 7.1 | inhibition [8]: < 15%

Cc1ccc(C)c(C#Cc2sc(N)c(C(=O)c3ccc(Cl)cc3)c2CC(C)(C)C)c1
inhibition [3]: 66% | inhibition [4]: < 15% | inhibition [5]: < 15% | fold change (FC) [1]: 6.2 | inhibition [7]: 62% | fold change (FC) [2]: 4 | inhibition [8]: < 15%

Cc1c(CCc2ccccc2)sc(N)c1C(=O)c1ccc(Cl)cc1
inhibition [3]: 27% | inhibition [4]: < 15% | inhibition [5]: < 15% | fold change (FC) [1]: 2.2 | inhibition [7]: 28% | fold change (FC) [2]: 1.6 | inhibition [8]: < 15%

Nc1sc(CCc2ccccc2)cc1C(=O)c1ccc(Cl)cc1
inhibition [3]: 20% | inhibition [4]: < 15% | inhibition [5]: < 15% | fold change (FC) [1]: 1.7 | inhibition [7]: 22% | fold change (FC) [2]: 1.3 | inhibition [8]: < 15%

Nc1sc(C#Cc2ccccc2)c(CN2CCN(c3ccc(F)cc3)CC2)c1C(=O)c1ccc(Cl)cc1
inhibition [3]: 38% | inhibition [4]: < 15% | inhibition [5]: < 15% | fold change (FC) [1]: 3.9 | inhibition [7]: 37% | fold change (FC) [2]: 3.9 | inhibition [8]: < 15%

Nc1sc(C#Cc2ccccc2)c(CN2CCN(c3ccccc3)CC2)c1C(=O)c1ccc(Cl)cc1
inhibition [3]: 31% | inhibition [4]: < 15% | inhibition [5]: < 15% | fold change (FC) [1]: 2.8 | inhibition [7]: 29% | fold change (FC) [2]: 2.8 | inhibition [8]: < 15%

Nc1sc(-c2ccccc2)c(CN2CCN(c3ccccc3)CC2)c1C(=O)c1ccc(Cl)cc1
fold change (FC) [1]: 11.5 | fold change (FC) [2]: 8.3

Nc1sc(CCc2ccccc2)c(-c2ccccc2)c1C(=O)c1ccc(Cl)cc1
inhibition [3]: 24% | inhibition [4]: < 15% | inhibition [5]: < 15% | fold change (FC) [1]: 2.2 | inhibition [7]: 25% | fold change (FC) [2]: 1.6 | inhibition [8]: < 15%

CC(C)(C)Cc1c(C#CC2CCCCC2)sc(N)c1C(=O)c1ccc(Cl)cc1
inhibition [3]: 71% | inhibition [4]: < 15% | inhibition [5]: < 15% | fold change (FC) [1]: 8 | inhibition [7]: 67% | fold change (FC) [2]: 4.8 | inhibition [8]: < 15%

CC(C)(C)Cc1c(-c2ccccc2)sc(N)c1C(=O)c1ccc(Cl)cc1
fold change (FC) [1]: 6.9 | fold change (FC) [2]: 4.8

Nc1sc(C#Cc2ccccc2)c(-c2ccccc2)c1C(=O)c1ccc(Cl)cc1
inhibition [3]: 25% | inhibition [4]: < 15% | inhibition [5]: < 15% | fold change (FC) [1]: 1.9 | inhibition [7]: 24% | fold change (FC) [2]: 1.5 | inhibition [8]: < 15%

Cc1ccc(CCc2sc(N)c(C(=O)c3ccc(Cl)cc3)c2CC(C)(C)C)cc1
inhibition [3]: 45% | inhibition [4]: < 15% | inhibition [5]: < 15% | fold change (FC) [1]: 5 | inhibition [7]: 43% | fold change (FC) [2]: 3.8 | inhibition [8]: < 15%

CC(C)(C)Cc1c(C#Cc2ccsc2)sc(N)c1C(=O)c1ccc(Cl)cc1
inhibition [3]: 63% | inhibition [4]: < 15% | inhibition [5]: < 15% | fold change (FC) [1]: 5.7 | inhibition [7]: 60% | fold change (FC) [2]: 3.9 | inhibition [8]: < 15%

COc1ccc(C#Cc2sc(N)c(C(=O)c3ccc(Cl)cc3)c2CC(C)(C)C)cc1OC
inhibition [3]: 74% | inhibition [4]: < 15% | inhibition [5]: < 15% | fold change (FC) [1]: 7.1 | inhibition [7]: 72% | fold change (FC) [2]: 6.8 | inhibition [8]: < 15%

Cc1ccc(C#Cc2sc(N)c(C(=O)c3ccc(Cl)cc3)c2CC(C)(C)C)cc1
inhibition [3]: 73% | inhibition [4]: < 15% | inhibition [5]: < 15% | fold change (FC) [1]: 7.2 | inhibition [7]: 70% | fold change (FC) [2]: 7.5 | inhibition [8]: < 15%

Cc1ccc(-c2sc(N)c(C(=O)c3ccc(Cl)cc3)c2CC(C)(C)C)cc1
fold change (FC) [1]: 6.4 | fold change (FC) [2]: 6

Cc1c(C#Cc2ccccc2)sc(N)c1C(=O)c1ccc(Cl)cc1
inhibition [3]: 34% | inhibition [4]: < 15% | inhibition [5]: < 15% | fold change (FC) [1]: 2.5 | inhibition [7]: 27% | fold change (FC) [2]: 1.5 | inhibition [8]: < 15%

Nc1sc(C#Cc2ccccc2)c(CN2CCN(c3ccc(Cl)cc3)CC2)c1C(=O)c1ccc(Cl)cc1
inhibition [3]: 35% | inhibition [4]: < 15% | inhibition [5]: < 15% | fold change (FC) [1]: 3.4 | inhibition [7]: 35% | fold change (FC) [2]: 3.6 | inhibition [8]: < 15%

Nc1sc(C#Cc2ccccc2)c(CN(C2CCCCC2)C2CCCCC2)c1C(=O)c1ccc(Cl)cc1
inhibition [3]: 19% | inhibition [4]: < 15% | inhibition [5]: < 15% | fold change (FC) [1]: 1.2 | inhibition [7]: 10% | fold change (FC) [2]: 3.7 | inhibition [8]: < 15%

Cc1ccc(C#Cc2sc(N)c(C(=O)c3ccc(Cl)cc3)c2C)cc1
inhibition [3]: 36% | inhibition [4]: < 15% | inhibition [5]: < 15% | fold change (FC) [1]: 2.3 | inhibition [7]: 31% | fold change (FC) [2]: 1.7 | inhibition [8]: < 15%

Cc1cc(C)c(C#Cc2sc(N)c(C(=O)c3ccc(Cl)cc3)c2CC(C)(C)C)cc1C
inhibition [3]: 67% | inhibition [4]: < 15% | inhibition [5]: < 15% | fold change (FC) [1]: 7 | inhibition [7]: 68% | fold change (FC) [2]: 7.5 | inhibition [8]: < 15%

CCCCCc1ccc(C#Cc2sc(N)c(C(=O)c3ccc(Cl)cc3)c2CC(C)(C)C)cc1
inhibition [3]: 62% | inhibition [4]: < 15% | inhibition [5]: < 15% | fold change (FC) [1]: 5.5 | inhibition [7]: 60% | fold change (FC) [2]: 3.7 | inhibition [8]: < 15%

Nc1sc(C#Cc2ccccc2)cc1C(=O)c1ccc(Cl)cc1
inhibition [3]: 25% | inhibition [4]: < 15% | inhibition [5]: < 15% | fold change (FC) [1]: 2 | inhibition [7]: 20% | fold change (FC) [2]: 1.5 | inhibition [8]: < 15%

CCCCCC#Cc1sc(N)c(C(=O)c2ccc(Cl)cc2)c1CC(C)(C)C
inhibition [3]: 69% | inhibition [4]: < 15% | inhibition [5]: < 15% | Activity [6]: inactive | fold change (FC) [1]: 6.3 | inhibition [7]: 66% | fold change (FC) [2]: 4.1 | inhibition [8]: < 15%

CC(C)(C)Cc1c(CCc2ccccc2)sc(N)c1C(=O)c1ccc(Cl)cc1
inhibition [3]: 41% | inhibition [4]: < 15% | inhibition [5]: < 15% | fold change (FC) [1]: 3.3 | inhibition [7]: 40% | fold change (FC) [2]: 3.5 | inhibition [8]: < 15%
